US20250074891A1 (Anaxis Pharma Pty Ltd., priority 2021, published 2025)

How the values were obtained:
Conditions in all cases: Table 35
MLKL (full length) = MLKL (full length) (Homo sapiens (Human), UniProt Q8NB16); assay: KINOMEscan binding assay, MLKL (full length)
Method: (§1) Kinase assays. For most assays, kinase-tagged T7 phage strains were grown in parallel in 24-well blocks in an E. coli host derived from the BL21 strain. E. coli were grown to log-phase and infected with T7 phage from a frozen stock (multiplicity of infection=0.4) and incubated with shaking at 32° C. until lysis (90-150 minutes).
(§2) The Hill Slope was set to −1.

RIP3 = RIP3 (Homo sapiens (Human), UniProt Q9Y572); assay: KINOMEscan binding assay, RIP3
Method: as §1, §2

RIP1 = RIP1 (Homo sapiens (Human), UniProt Q13546); assay: KINOMEscan binding assay, RIP1
Sequence of RIP1 (Q13546 whole entry): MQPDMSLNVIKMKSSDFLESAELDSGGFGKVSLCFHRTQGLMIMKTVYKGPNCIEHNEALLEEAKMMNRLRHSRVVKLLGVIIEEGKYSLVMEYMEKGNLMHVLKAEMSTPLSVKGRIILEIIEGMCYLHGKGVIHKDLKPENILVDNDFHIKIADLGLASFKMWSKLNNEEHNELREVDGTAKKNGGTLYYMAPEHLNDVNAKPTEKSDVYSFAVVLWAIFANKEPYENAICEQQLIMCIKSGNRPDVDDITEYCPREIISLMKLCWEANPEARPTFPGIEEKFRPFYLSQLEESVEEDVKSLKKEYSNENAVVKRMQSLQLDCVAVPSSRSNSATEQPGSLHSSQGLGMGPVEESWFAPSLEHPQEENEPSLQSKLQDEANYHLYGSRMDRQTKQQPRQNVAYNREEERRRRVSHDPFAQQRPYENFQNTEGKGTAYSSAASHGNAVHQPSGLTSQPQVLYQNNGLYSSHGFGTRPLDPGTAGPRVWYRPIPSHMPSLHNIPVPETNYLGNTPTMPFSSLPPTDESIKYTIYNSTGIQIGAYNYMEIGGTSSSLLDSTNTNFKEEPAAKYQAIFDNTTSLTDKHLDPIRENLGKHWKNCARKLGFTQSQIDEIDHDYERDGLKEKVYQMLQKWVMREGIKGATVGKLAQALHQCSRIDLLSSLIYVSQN

Sequence of MLKL (full length) (Q8NB16 whole entry): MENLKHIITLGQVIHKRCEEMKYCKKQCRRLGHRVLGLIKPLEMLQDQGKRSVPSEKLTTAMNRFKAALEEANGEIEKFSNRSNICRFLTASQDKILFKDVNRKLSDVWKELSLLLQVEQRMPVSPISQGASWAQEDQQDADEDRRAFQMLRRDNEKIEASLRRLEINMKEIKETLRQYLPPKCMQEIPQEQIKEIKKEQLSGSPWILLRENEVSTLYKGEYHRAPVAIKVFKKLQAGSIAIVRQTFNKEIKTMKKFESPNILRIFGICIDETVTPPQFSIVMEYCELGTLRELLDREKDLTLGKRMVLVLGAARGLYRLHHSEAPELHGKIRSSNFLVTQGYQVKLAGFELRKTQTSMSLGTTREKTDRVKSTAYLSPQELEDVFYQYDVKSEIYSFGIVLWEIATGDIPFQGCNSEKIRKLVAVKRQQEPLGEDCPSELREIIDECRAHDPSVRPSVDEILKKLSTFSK
Sequence of RIP3 (Q9Y572 whole entry): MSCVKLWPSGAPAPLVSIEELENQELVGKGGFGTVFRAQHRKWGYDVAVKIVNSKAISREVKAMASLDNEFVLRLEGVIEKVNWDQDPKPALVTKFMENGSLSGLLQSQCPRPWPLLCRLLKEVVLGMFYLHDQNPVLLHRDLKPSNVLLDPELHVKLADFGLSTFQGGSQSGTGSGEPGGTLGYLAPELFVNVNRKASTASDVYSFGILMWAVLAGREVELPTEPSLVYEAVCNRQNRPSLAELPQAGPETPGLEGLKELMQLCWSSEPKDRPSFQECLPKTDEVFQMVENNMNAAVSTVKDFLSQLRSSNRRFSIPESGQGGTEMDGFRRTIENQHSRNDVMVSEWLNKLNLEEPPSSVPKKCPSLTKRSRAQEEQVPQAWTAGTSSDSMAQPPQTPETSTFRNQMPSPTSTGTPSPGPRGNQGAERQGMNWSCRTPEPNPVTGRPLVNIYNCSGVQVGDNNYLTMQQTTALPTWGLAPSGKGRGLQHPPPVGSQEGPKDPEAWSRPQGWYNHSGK

## CCS(=O)(=O)Nc1ccc(-c2n[nH]c(Nc3cccc(OC)n3)c2C(N)=O)cc1OCc1ccc(F)cc1 [Compound 11, 3-(4-(ethylsulfonamido)-3-((4-fluorobenzyl)oxy)phenyl) 5-((6-methoxypyridin-2-yl)amino)-1H-pyrazole-4-carboxamide]
MLKL (full length)
  Kd: < 0.01 µM
RIP3
  Kd: > 30 µM
RIP1
  Kd: > 30 µM

## CCS(=O)(=O)Nc1ccc(-c2n[nH]c(Nc3cnc(OC)cn3)c2C(N)=O)cc1OCc1ccc(F)cc1 [Compound 14, 3-(4-(ethylsulfonamido)-3-((4-fluorobenzyl)oxy)phenyl) 5-((5-methoxypyrazin-2-yl)amino)-1H-pyrazole-4-carboxamide]
MLKL (full length)
  Kd: < 0.01 µM
RIP3
  Kd: > 30 µM
RIP1
  Kd: > 30 µM

## CCS(=O)(=O)Nc1ccc(-c2n[nH]c(Nc3cncc(OC)n3)c2C(N)=O)cc1OCc1ccc(F)cc1 [Compound 15, 3-(4-(ethylsulfonamido)-3-((4-fluorobenzyl)oxy)phenyl) 5-((6-methoxypyrazin-2-yl)amino)-1H-pyrazole-4-carboxamide]
MLKL (full length)
  Kd: < 0.01 µM
RIP3
  Kd: > 30 µM
RIP1
  Kd: > 30 µM

## CCS(=O)(=O)Nc1ccc(-c2n[nH]c(Nc3cncc(C(F)(F)F)n3)c2C(N)=O)cc1OCc1ccc(F)cc1 [Compound 17, 3-(4-(ethylsulfonamido)-3-((4-fluorobenzyl)oxy)phenyl)5-((6-(trifluoromethyl)pyrazin-2-yl)amino)-1H-pyrazole-4-carboxamide]
MLKL (full length)
  Kd: < 0.01 µM
RIP3
  Kd: > 30 µM
RIP1
  Kd: > 30 µM

## CCS(=O)(=O)Nc1ccc(-c2n[nH]c(Nc3ccccn3)c2C(N)=O)cc1OCc1ccccc1 [Compound 20, 3-(3-(benzyloxy)-4-(ethylsulfon-amido)phenyl)-5-(pyridin-2-ylamino)-1H-pyrazole-4-carboxamide]
MLKL (full length)
  Kd: < 0.01 µM
RIP3
  Kd: > 30 µM
RIP1
  Kd: > 30 µM

## CCS(=O)(=O)Nc1ccc(-c2n[nH]c(Nc3cnccn3)c2C(N)=O)c(OCc2ccc(F)cc2)c1 [Compound 21, 3-(4-(ethylsulfonamido)-2-((4-fluorobenzyl)oxy)phenyl)-5-(pyrazin-2-ylamino)-1H-pyrazole-4-carboxamide]
MLKL (full length)
  Kd: < 0.01 µM
RIP3
  Kd: > 30 µM
RIP1
  Kd: > 30 µM

## NC(=O)c1c(-c2ccc(NS(=O)(=O)CCC(F)F)cc2)n[nH]c1Nc1cnccn1 [Compound 23, 3-(4-((3,3-difluoropropyl)sulfonamido)phenyl)-5-(pyrazin-2-ylamino)-1H-pyrazole-4-carboxamide]
MLKL (full length)
  Kd: < 0.01 µM
RIP3
  Kd: > 30 µM
RIP1
  Kd: > 30 µM

## CCS(=O)(=O)Nc1ccc(-c2n[nH]c(Nc3cnccn3)c2C(N)=O)cc1OCCc1ccc(F)cc1 [Compound 24]
MLKL (full length)
  Kd: < 0.01 µM
RIP3
  Kd: > 30 µM
RIP1
  Kd: > 30 µM

## CCS(=O)(=O)Nc1ccc(-c2n[nH]c(Nc3cnccn3)c2C(N)=O)cc1OCc1ccccc1 [Compound 25, 3-(3-(benzyloxy)-4-(ethylsulfonamido)phenyl)-5-(pyrazin-2-ylamino)-1H-pyrazole-4-carboxamide]
MLKL (full length)
  Kd: < 0.01 µM
RIP3
  Kd: > 30 µM
RIP1
  Kd: > 30 µM

## CCS(=O)(=O)Nc1ccc(-c2n[nH]c(Nc3cnccn3)c2C(N)=O)cc1OCc1cccc(F)c1 [Compound 26, 3-(4-(ethylsulfonamido)-3-((3-fluorobenzyl)oxy)phenyl)-5-(pyrazin-2-ylamino)-1H-pyrazole-4-carboxamide]
MLKL (full length)
  Kd: < 0.01 µM
RIP3
  Kd: > 30 µM
RIP1
  Kd: > 30 µM

## CCS(=O)(=O)Nc1ccc(-c2n[nH]c(Nc3ccccn3)c2C(N)=O)cc1OCc1ccncc1 [Compound 27, 3-(4-(ethylsulfon-amido)-3-(pyridin-4-ylmethoxy)phenyl)-5-(pyridin-2-ylamino)-1H-pyrazole-4-carboxamide]
MLKL (full length)
  Kd: < 0.01 µM
RIP3
  Kd: > 30 µM
RIP1
  Kd: > 30 µM

## CCS(=O)(=O)Nc1ccc(-c2n[nH]c(Nc3cnccn3)c2C(N)=O)cc1OCc1ccncc1 [Compound 28, 3-(4-(ethylsulfonamido)-3-(226yridine-4-ylmethoxy)phenyl)-5-(pyrazin-2-ylamino)-1H-pyrazole-4-carboxamide]
MLKL (full length)
  Kd: < 0.01 µM
RIP3
  Kd: > 30 µM
RIP1
  Kd: > 30 µM

## N#CCS(=O)(=O)Nc1ccc(-c2n[nH]c(Nc3cccc(C(F)(F)F)n3)c2C(N)=O)cc1 [Compound 29, 3-(4-((cyanomethyl)sulfonamido)phenyl)-5-((6-(trifluoromethyl)pyridin-2-yl)amino)-1H-pyrazole-4-carboxamide]
MLKL (full length)
  Kd: < 0.01 µM
RIP3
  Kd: > 30 µM
RIP1
  Kd: > 30 µM

## CCS(=O)(=O)Nc1ccc(-c2n[nH]c(Nc3ccccn3)c2C(N)=O)cc1OCc1ccc(F)cc1 [Compound 30, 3-(4-(ethylsulfon-amido)-3-((4-fluorobenzyl)oxy)phenyl)-5-(pyridin-2-ylamino)-1H-pyrazole-4-carboxamide]
MLKL (full length)
  Kd: < 0.01 µM
RIP3
  Kd: > 30 µM
RIP1
  Kd: > 30 µM

## CCS(=O)(=O)Nc1ccc(-c2n[nH]c(Nc3ccccn3)c2C(N)=O)cc1OCc1cccnc1 [Compound 31, 3-(4-(ethylsulfon-amido)-3-(pyridin-3-ylmethoxy)phenyl)-5-(pyridin-2-ylamino)-1H-pyrazole-4-carboxamide]
MLKL (full length)
  Kd: < 0.01 µM
RIP3
  Kd: > 30 µM
RIP1
  Kd: > 30 µM

## CCS(=O)(=O)Nc1ccc(-c2n[nH]c(Nc3cnccn3)c2C(N)=O)cc1OCc1cccnc1 [Compound 32, 3-(4-(ethylsulfonamido)-3-(226yridine-3-ylmethoxy)phenyl)-5-(pyrazin-2-ylamino)-1H-pyrazole-4-carboxamide]
MLKL (full length)
  Kd: < 0.01 µM
RIP3
  Kd: > 30 µM
RIP1
  Kd: > 30 µM

## CCS(=O)(=O)Nc1ccc(-c2n[nH]c(Nc3cnc(C(C)C)cn3)c2C(N)=O)cc1OCc1ccc(F)cc1 [Compound 34, 3-(4-(ethylsulfonamido)-3-((4-fluorobenzyl)oxy)phenyl) 5-((5-isopropylpyrazin-2-yl)amino)-1H-pyrazole-4-carboxamide]
MLKL (full length)
  Kd: < 0.01 µM
RIP3
  Kd: > 30 µM
RIP1
  Kd: > 30 µM

## CCS(=O)(=O)Nc1ccc(-c2n[nH]c(Nc3cnccn3)c2C(N)=O)cc1OCC1CCCC1 [Compound 40, 3-(3-(cyclopentyl-methoxy)-4-(ethylsulfonamido)phenyl)-5-(pyrazin-2-ylamino)-1H-pyrazole-4-carboxamide]
MLKL (full length)
  Kd: < 0.01 µM
RIP3
  Kd: > 30 µM
RIP1
  Kd: > 30 µM

## CCS(=O)(=O)Nc1ccc(-c2n[nH]c(Nc3cnccn3)c2C(N)=O)cc1OCc1cccc(Cl)c1 [Compound 41, 3-(3-((3-chlorobenzyl)oxy)-4-(ethylsulfonamido)phenyl)-5-(pyrazin-2-ylamino)-1H-pyrazole-4-carboxamide]
MLKL (full length)
  Kd: < 0.01 µM
RIP3
  Kd: > 30 µM
RIP1
  Kd: > 30 µM

## CCS(=O)(=O)Nc1ccc(-c2n[nH]c(Nc3cnccn3)c2C(N)=O)cc1OCc1ccc(Cl)cc1 [Compound 42, 3-(3-((4-chlorobenzyl)oxy)-4-(ethylsulfonamido)phenyl)-5-(pyrazin-2-ylamino)-1H-pyrazole-4-carboxamide]
MLKL (full length)
  Kd: < 0.01 µM
RIP3
  Kd: > 30 µM
RIP1
  Kd: > 30 µM

## CCS(=O)(=O)Nc1ccc(-c2n[nH]c(Nc3cnccn3)c2C(N)=O)cc1OCC1CCCCC1 [Compound 47, 3-(3-(cyclohexyl-methoxy)-4-(ethylsulfonamido)phenyl)-5-(pyrazin-2-ylamino)-1H-pyrazole-4-carboxamide]
MLKL (full length)
  Kd: < 0.01 µM
RIP3
  Kd: > 30 µM
RIP1
  Kd: > 30 µM

## NC(=O)c1c(-c2ccc(NS(=O)(=O)C(F)F)cc2)n[nH]c1Nc1ccccn1 [Compound 48, 3-(4-((difluoromethyl)sulfonamido)phenyl)-5-(pyridin-2-ylamino)-1H-pyrazole-4-carboxamide]
MLKL (full length)
  Kd: < 0.01 µM
RIP3
  Kd: > 30 µM
RIP1
  Kd: > 30 µM

## CCS(=O)(=O)Nc1ccc(-c2n[nH]c(Nc3cnccn3)c2C(N)=O)cc1OCc1ccc(F)cc1 [Compound 62, 3-(4-(ethylsulfonamido)-3-((4-fluorobenzyl)oxy)phenyl) 5-(pyrazin-2-ylamino)-1H pyrazole-4-carboxamide]
MLKL (full length)
  Kd: < 0.01 µM
RIP3
  Kd: > 30 µM
RIP1
  Kd: > 30 µM

## NC(=O)c1c(-c2ccc(NS(=O)(=O)C(F)F)cc2)n[nH]c1Nc1cnccn1 [Compound 63, 3-(4-((difluoromethyl)sulfonamido)phenyl)-5-(pyrazin-2-ylamino)-1H-pyrazole-4-carboxamide]
MLKL (full length)
  Kd: < 0.01 µM
RIP3
  Kd: > 30 µM
RIP1
  Kd: > 30 µM

## CCS(=O)(=O)Nc1ccc(-c2n[nH]c(Nc3cnc4ccccc4n3)c2C(N)=O)cc1 [Compound 67, 3-(4-(ethylsulfonamido)phenyl)-5-(quinoxalin-2-ylamino)-1H-pyrazole-4-carboxamide]
MLKL (full length)
  Kd: < 0.01 µM
RIP3
  Kd: > 30 µM
RIP1
  Kd: > 30 µM

## NC(=O)c1c(-c2ccc(NS(=O)(=O)C3CC3)cc2)n[nH]c1Nc1cnccn1 [Compound 68, 3-(4-(cyclopropanesulfonamido)phenyl)-5-(pyrazin-2-ylamino)-1H-pyrazole-4-carboxamide]
MLKL (full length)
  Kd: < 0.01 µM
RIP3
  Kd: > 30 µM
RIP1
  Kd: > 30 µM

## NC(=O)c1c(-c2ccc(NS(=O)(=O)Cc3ccc(Cl)cc3)cc2)n[nH]c1Nc1cnccn1 [Compound 70, 3-(4-(((4-chlorophenyl)methyl)sulfonamido)phenyl)-5-(pyrazin-2-ylamino)-1H-pyrazole-4-carboxamide]
MLKL (full length)
  Kd: < 0.01 µM
RIP3
  Kd: > 30 µM
RIP1
  Kd: > 30 µM

## CCS(=O)(=O)Nc1ccc(-c2n[nH]c(Nc3cnc(C(F)(F)F)cn3)c2C(N)=O)cc1 [Compound 75, 3-(4-ethanesulfonamidophenyl)-5-{[5-(trifluoromethyl)pyrazin-2-yl]amino}-1H-pyrazole-4-carboxamide]
MLKL (full length)
  Kd: < 0.01 µM
RIP3
  Kd: > 30 µM
RIP1
  Kd: > 30 µM

## CCS(=O)(=O)Nc1ccc(-c2n[nH]c(Nc3cc4ccccc4cn3)c2C(N)=O)cc1 [Compound 87, 3-(4-(ethylsulfonamido)phenyl)-5-(isoquinolin-3-ylamino)-1H-pyrazole-4-carboxamide]
MLKL (full length)
  Kd: < 0.01 µM
RIP3
  Kd: > 30 µM
RIP1
  Kd: > 30 µM
